Our source for the logP values is the SangsterLogP compilation.

The data set is described as follows: method code SF-AS, from PMID: 8295915.

The logP is a log measure of how a compound divides between an organic and an aqueous phase. With `CCNc1nc(C)c(C(=O)CCN(CC)CC)s1`, the logP is 2.72.

Compound `Cc1nc(N)sc1C(=O)CCN1CCCC1` yielded a logP of 1.74.

Compound `CCNc1nc(C)c(C(=O)CCN2CCCCC2)s1` displayed a logP of 2.66.

For the compound `CCN(CC)CCC(=O)c1sc(N)nc1C`, the logP came out at 1.76.

`Cc1nc(N)sc1C(=O)CCN1CCOCC1` displayed a logP of 0.82.

Consider `CNc1nc(C)c(C(=O)CCN2CCOCC2)s1`, for which the logP was 0.95.

The compound `CCNc1nc(C)c(C(=O)CCN(C)C)s1` came in with a logP of 2.21.

Consider `Cc1nc(N)sc1C(=O)CCN(C)C`, for which the logP was found to be 1.47.

For `CNc1nc(C)c(C(=O)CCN2CCCC2)s1`, the logP was found to be 1.86.

As for `CCNc1nc(C)c(C(=O)CCN2CCOCC2)s1`, the logP came to 1.43.

In turn, `CNc1nc(C)c(C(=O)CCN2CCCCC2)s1` displayed a logP of 2.21.

Compound `CNc1nc(C)c(C(=O)CCN(C)C)s1` returned a logP of 1.58.

In turn, `Cc1nc(N)sc1C(=O)CCN1CCCCC1` showed a logP of 2.13.
